Source: patent US7384931B2, “Constrained compounds as CGRP-receptor antagonists” (Bristol-Myers Squibb Company, priority 2004, dated 2008)
Counter-ions that a name gives are not always drawn.

biological target: CGRP receptor (Homo sapiens, UniProt O60894+Q16602); assay: CGRP radioligand binding assay ([125I]-CGRP displacement, SK-N-MC homogenate); design: endogenous in cells; host or cells: SK-N-MC cells (homogenate/membrane pellet); settings: displacement of [125I]-CGRP, room temperature 2 h
Description: CGRP Binding Assay. Tissue Culture. SK—N-MC cells were grown at 37° C. in 5% CO2 as a monolayer in medium consisting of MEM with Earle's salts and L-glutamine (Gibco) supplemented with 10% fetal bovine serum (Gibco). Cell Pellets. The cells were rinsed twice with phosphate-buffered saline (155 mM NaCl, 3.3 mM Na2HPO4, 1.1 mM KH2PO4, pH 7.4), and incubated for 5-10 min. at 4° C. in hypotonic lysis buffer consisting of 10 mM Tris (pH 7.4) and 5 mM EDTA. The cells were transferred from plates to polypropylene tubes (16×100 mm) and homogenized using a polytron. Homogenates were centrifuged at 32,000×g for 30 min. The pellets were resuspended in cold hypotonic lysis buffer with 0.1% mammalian protease inhibitor cocktail (Sigma) and assayed for protein concentration. The SK—N-MC homogenate was then aliquoted and stored at −80° C. until needed.
Radioligand Binding Assay. The compounds of invention were solubilized and carried through serial dilutions using 100% DMSO. Aliquots from the compound serial dilutions were further diluted 25 fold into assay buffer (50 mM Tris-Cl pH 7.5, 5 mM MgCl2, 0.005% Triton X-100) and transferred (volume 50 μl) into 96 well assay plates. [^125I]-CGRP (Amersham Biosciences) was diluted to 60 pM in assay buffer and a volume of 50 μl was added to each well. SK—N-MC pellets were thawed, diluted in assay buffer with fresh 0.1% mammalian protease inhibitor cocktail (Sigma), and homogenized again. SK—N-MC homogenate (5 μg/well) was added in a volume of 100 μl. The assay plates were then incubated at room temperature for 2 h. Assays were stopped by addition of excess cold wash buffer (20 mM Tris-Cl pH 7.5, 0.1% BSA) immediately followed by filtration over glass fiber filters (Whatman GF/B) previously soaked in 0.5% PEI. Non-specific binding was defined with 1 μM beta-CGRP. Protein bound radioactivity was determined using a gamma or scintillation counter. The IC50 was defined as the concentration of a compound of invention required to displace 50% of radioligand binding.

CGRP receptor, sequence (Q16602 23-461): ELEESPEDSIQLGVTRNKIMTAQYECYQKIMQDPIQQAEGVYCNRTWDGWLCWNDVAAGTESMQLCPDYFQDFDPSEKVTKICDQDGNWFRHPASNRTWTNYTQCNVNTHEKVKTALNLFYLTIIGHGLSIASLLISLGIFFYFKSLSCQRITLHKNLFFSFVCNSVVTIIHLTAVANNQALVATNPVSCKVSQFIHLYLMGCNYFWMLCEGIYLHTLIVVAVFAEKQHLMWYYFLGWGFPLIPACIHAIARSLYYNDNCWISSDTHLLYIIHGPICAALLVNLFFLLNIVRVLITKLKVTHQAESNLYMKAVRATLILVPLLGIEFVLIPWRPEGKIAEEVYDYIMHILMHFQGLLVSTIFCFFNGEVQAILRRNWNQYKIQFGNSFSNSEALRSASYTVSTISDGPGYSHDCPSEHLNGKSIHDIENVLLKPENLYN
CGRP receptor, sequence (O60894 27-148): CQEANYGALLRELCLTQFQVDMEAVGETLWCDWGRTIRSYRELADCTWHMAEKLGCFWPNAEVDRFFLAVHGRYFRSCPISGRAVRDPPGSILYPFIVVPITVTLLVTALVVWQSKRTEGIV

Molecule	IC50 [nM]
CC(C)c1cc2c(c3cn[nH]c13)CN(CC(C)(C)C)C(=O)[C@H](CC(=O)N1CCC(c3cc4cccc(F)c4[nH]c3=O)CC1)C2 [Example 105, (S)-7-(2-(4-(8-fluoro-2-oxo-1,2-dihydroquinolin-3-yl)piperidin-1-yl)-2-oxoethyl)-4-isopropyl-9-neopentyl-6,7,9,10-tetrahydroazepino[3,4-e]indazol-8(3H)-one]	10 to 100
O=C(N[C@@H]1Cc2ccc3[nH]ncc3c2CN(Cc2ccc(C(F)(F)F)cc2)C1=O)N1CCC(N2Cc3ccccc3NC2=O)CC1 [Example 13, 4-(2-Oxo-1,4-dihydro-2H-quinazolin-3-yl)-piperidine-1-carboxylic acid [8-oxo-9-(4-trifluoromethyl-benzyl)-3,6,7,8,9,10-hexahydro-2,3,9-triaza-(R)-cyclohepta[e]inden-7-yl]-amide]	10 to 100
(7S)-9-Benzyl-7-(2-oxo-2-(4-(2-oxo-1,2,3,4-tetrahydroquinolin-3-yl)piperazin-1-yl)ethyl)-6,7,9,10-tetrahydroazepino[3,4-e]indazol-8(3H)-one [Example 58]	100 to 1000
CN(C)CCN1Cc2c(ccc3[nH]ncc23)C[C@@H](NC(=O)N2CCC(N3Cc4ccccc4NC3=O)CC2)C1=O [Example 5, 4-(2-Oxo-1,4-dihydro-2H-quinazolin-3-yl)-piperidine-1-carboxylic acid [9-(2-dimethylamino-ethyl)-8-oxo-3,6,7,8,9,10-hexahydro-2,3,9-triaza-(R)-cyclohepta[e]inden-7-yl]-amide]	100 to 1000
Cc1c(N)ccc2c1CN(Cc1ccccc1)C(=O)[C@H](NC(=O)N1CCC(N3Cc4ccccc4NC3=O)CC1)C2 [Example 56, trifluoroacetate]	100 to 1000
O=C(C[C@@H]1Cc2cc(Br)c3[nH]ncc3c2CN(CC2CC2)C1=O)N1CCC(c2cc3cccc(F)c3[nH]c2=O)CC1 [Example 112, (S)-4-bromo-9-(cyclopropylmethyl)-7-(2-(4-(8-fluoro-2-oxo-1,2-dihydroquinolin-3-yl)piperidin-1-yl)-2-oxoethyl)-6,7,9,10-tetrahydroazepino[3,4-e]indazol-8(3H)-one]	10 to 100
O=C(C[C@@H]1Cc2ccc3[nH]ncc3c2CN(Cc2ccccc2)C1=O)N1CCC(N2Cc3ccccc3NC2=O)CC1 [Example 38, (S)-9-Benzyl-7-(2-oxo-2-(4-(2-oxo-1,2-dihydroquinazolin-3(4H)-yl)piperidin-1-yl)ethyl)-6,7,9,10-tetrahydroazepino[3,4-e]indazol-8(3H)-one]	100 to 1000
CC(C)(C)CN1Cc2c(cc(Cl)c3[nH]ncc23)C[C@@H](CC(=O)N2CCC(c3cc4c(F)cccc4[nH]c3=O)CC2)C1=O [Example 118]	10 to 100

Continued, values first:

IC50 [nM]	Molecule
0.1 to 10	O=C(C[C@@H]1Cc2cc(Br)c3[nH]ncc3c2CN(CC(F)(F)F)C1=O)N1CCC(c2cc3cccnc3[nH]c2=O)CC1 [Example 96, (S)-4-bromo-7-(2-oxo-2-(4-(2-oxo-1,2-dihydro-1,8-naphthyridin-3-yl)piperidin-1-yl)ethyl)-9-(2,2,2-trifluoroethyl)-6,7,9,10-tetrahydroazepino[3,4-e]indazol-8(3H)-one]
0.1 to 10	CC(C)(C)CN1Cc2c(cc(Cl)c3[nH]ncc23)C[C@@H](CC(=O)N2CCC(c3cc4ccc(F)cc4[nH]c3=O)CC2)C1=O [Example 120]
0.1 to 10	COCCN1Cc2c(cc(Br)c3[nH]ncc23)C[C@@H](CC(=O)N2CCC(c3cc4ccccc4[nH]c3=O)CC2)C1=O [Example 113, (S)-4-bromo-9-(2-methoxyethyl)-7-(2-oxo-2-(4-(2-oxo-1,2-dihydroquinolin-3-yl)piperidin-1-yl)ethyl)-6,7,9,10-tetrahydroazepino[3,4-e]indazol-8(3H)-one]
0.1 to 10	O=C(C[C@@H]1Cc2cc(Cl)c3[nH]ncc3c2CN(Cc2ccncc2)C1=O)N1CCC(c2cc3cccc(F)c3[nH]c2=O)CC1 [Example 51, (S)-4-Chloro-7-(2-(4-(8-fluoro-2-oxo-1,2-dihydroquinolin-3-yl)piperidin-1-yl)-2-oxoethyl)-9-(pyridin-4-ylmethyl)-6,7,9,10-tetrahydroazepino[3,4-e]indazol-8(3H)-one]
